From ChEMBL document CHEMBL5291721, “A preclinical secondary pharmacology resource illuminates target-adverse drug reaction associations of marketed drugs” (Nat Commun, 2023)

Assays:
[1] = target: 5-hydroxytryptamine receptor 6 (Homo sapiens, UniProt P50406)
[2] = target: 5-hydroxytryptamine receptor 7 (Homo sapiens, UniProt P34969)
[3] = target: T1, Alpha-1A adrenergic receptor (Homo sapiens, UniProt P35348)
T1 sequence (P35348 whole entry): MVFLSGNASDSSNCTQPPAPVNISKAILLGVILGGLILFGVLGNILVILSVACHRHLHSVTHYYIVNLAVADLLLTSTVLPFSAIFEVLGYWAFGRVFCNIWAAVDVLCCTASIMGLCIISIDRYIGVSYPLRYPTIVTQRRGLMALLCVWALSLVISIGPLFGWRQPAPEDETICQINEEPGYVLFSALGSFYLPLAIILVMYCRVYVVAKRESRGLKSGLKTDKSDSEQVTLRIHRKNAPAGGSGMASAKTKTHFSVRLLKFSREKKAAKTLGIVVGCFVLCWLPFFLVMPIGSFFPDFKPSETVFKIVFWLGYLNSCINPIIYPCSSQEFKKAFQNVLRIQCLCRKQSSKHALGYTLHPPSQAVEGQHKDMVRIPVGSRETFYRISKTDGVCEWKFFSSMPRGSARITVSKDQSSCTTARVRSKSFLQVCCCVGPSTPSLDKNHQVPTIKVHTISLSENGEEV

[4] = target: 5-hydroxytryptamine receptor 2B (Homo sapiens, UniProt P41595)
[5] = target: Glucagon receptor (Homo sapiens, UniProt P47871)
[6] = target: T2, Endothelin receptor type B (Homo sapiens, UniProt P24530)
T2 sequence (P24530 whole entry): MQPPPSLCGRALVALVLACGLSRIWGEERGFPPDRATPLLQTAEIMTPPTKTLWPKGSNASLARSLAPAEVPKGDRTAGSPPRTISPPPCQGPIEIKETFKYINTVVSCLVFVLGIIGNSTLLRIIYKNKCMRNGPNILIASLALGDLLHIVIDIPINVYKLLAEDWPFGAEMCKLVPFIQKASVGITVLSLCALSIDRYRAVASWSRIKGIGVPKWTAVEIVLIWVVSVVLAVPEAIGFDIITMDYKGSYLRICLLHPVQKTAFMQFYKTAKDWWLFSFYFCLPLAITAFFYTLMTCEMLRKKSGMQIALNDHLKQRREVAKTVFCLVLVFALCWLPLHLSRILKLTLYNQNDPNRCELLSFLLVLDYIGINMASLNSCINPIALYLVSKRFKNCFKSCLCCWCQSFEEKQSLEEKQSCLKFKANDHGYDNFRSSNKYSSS

[7] = target: T3, 5-hydroxytryptamine receptor 1A (Homo sapiens, UniProt P08908)
T3 sequence (P08908 whole entry): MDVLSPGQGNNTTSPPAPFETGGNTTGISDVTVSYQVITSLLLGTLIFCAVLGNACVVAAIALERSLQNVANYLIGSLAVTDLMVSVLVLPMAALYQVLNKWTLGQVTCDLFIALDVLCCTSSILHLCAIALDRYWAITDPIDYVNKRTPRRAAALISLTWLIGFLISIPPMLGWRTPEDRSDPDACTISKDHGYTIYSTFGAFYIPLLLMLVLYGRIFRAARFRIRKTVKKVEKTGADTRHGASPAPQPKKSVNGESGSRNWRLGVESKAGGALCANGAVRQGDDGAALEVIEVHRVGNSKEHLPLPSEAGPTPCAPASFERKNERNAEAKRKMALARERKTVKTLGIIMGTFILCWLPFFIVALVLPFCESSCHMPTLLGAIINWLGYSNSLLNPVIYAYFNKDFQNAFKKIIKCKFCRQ

[8] = target: T4, Neuropeptide Y receptor type 2 (Homo sapiens, UniProt P49146)
T4 sequence (P49146 whole entry): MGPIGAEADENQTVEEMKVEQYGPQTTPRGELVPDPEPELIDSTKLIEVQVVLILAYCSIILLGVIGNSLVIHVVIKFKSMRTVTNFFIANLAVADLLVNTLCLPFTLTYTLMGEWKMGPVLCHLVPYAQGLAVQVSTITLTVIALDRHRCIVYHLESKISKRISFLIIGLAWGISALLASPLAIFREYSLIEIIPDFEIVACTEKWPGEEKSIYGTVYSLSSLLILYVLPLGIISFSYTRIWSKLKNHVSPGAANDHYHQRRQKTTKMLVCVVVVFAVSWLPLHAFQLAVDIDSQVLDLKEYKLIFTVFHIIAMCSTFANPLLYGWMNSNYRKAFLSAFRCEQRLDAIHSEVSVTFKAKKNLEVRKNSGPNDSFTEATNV

[9] = target: D(1A) dopamine receptor (Homo sapiens, UniProt P21728)
[10] = target: Gamma-aminobutyric acid receptor subunit alpha-1/alpha-2/beta-2/gamma-2 (Homo sapiens, UniProt P14867+P18507+P47869+P47870); assay type: functional, cell-based
[11] = target: T5, Muscarinic acetylcholine receptor M1 (Homo sapiens, UniProt P11229); assay type: functional, cell-based
T5 sequence (P11229 whole entry): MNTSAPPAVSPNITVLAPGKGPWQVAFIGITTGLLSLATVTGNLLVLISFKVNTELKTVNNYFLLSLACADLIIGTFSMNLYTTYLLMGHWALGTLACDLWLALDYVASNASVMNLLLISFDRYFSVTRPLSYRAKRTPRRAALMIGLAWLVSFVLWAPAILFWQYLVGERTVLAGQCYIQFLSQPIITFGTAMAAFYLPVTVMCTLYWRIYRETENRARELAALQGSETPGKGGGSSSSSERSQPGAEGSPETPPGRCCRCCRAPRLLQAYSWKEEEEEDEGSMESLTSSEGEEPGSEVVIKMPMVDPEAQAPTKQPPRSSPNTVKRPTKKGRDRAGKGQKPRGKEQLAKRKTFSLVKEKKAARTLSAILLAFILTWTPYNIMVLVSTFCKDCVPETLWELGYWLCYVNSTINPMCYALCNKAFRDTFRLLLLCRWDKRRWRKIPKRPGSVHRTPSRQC

[12] = target: Synaptic vesicular amine transporter (Rattus norvegicus, UniProt Q01827); assay type: functional
Also: assay procedure not described here.

Chain of Gamma-aminobutyric acid receptor subunit alpha-1/alpha-2/beta-2/gamma-2 (P14867 whole entry): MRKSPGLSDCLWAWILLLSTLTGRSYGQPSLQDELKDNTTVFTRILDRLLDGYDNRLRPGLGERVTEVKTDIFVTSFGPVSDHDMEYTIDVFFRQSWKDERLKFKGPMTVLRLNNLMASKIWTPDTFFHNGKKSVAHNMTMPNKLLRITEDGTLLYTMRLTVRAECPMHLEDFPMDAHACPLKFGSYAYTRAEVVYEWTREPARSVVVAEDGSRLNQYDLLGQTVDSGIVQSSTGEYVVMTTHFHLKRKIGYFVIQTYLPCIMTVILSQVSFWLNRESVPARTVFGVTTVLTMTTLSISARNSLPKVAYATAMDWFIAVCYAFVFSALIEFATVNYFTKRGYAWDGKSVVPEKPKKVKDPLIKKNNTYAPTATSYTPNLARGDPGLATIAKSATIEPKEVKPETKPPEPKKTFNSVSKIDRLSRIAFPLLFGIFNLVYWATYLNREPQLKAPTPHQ
Chain of Gamma-aminobutyric acid receptor subunit alpha-1/alpha-2/beta-2/gamma-2 (P47870 whole entry): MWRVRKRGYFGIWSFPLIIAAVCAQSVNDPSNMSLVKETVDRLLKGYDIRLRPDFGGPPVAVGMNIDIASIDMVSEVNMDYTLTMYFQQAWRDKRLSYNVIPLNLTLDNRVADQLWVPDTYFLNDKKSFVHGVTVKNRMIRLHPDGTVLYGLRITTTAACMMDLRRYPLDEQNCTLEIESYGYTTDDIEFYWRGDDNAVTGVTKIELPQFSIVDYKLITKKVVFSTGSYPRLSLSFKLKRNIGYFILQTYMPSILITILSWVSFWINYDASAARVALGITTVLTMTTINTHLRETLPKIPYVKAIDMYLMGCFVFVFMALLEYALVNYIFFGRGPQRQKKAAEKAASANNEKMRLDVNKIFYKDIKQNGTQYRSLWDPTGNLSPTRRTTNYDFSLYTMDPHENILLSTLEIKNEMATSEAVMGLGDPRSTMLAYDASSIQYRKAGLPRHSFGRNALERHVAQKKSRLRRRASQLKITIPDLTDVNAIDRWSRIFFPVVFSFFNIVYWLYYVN
Chain of Gamma-aminobutyric acid receptor subunit alpha-1/alpha-2/beta-2/gamma-2 (P18507 whole entry): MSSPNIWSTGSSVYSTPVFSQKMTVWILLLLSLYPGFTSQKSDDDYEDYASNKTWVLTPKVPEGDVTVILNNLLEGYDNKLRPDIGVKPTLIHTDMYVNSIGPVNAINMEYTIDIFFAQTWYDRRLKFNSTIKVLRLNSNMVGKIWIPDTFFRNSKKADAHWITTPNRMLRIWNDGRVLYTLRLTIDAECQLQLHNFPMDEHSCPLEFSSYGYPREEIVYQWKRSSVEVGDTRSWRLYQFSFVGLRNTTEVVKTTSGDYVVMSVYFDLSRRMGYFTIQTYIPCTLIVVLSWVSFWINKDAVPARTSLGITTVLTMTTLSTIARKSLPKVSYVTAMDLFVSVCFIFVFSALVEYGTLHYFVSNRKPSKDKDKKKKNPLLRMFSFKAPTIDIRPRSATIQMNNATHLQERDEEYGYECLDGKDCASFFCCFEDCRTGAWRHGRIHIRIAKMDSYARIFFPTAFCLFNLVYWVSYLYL
Chain of Gamma-aminobutyric acid receptor subunit alpha-1/alpha-2/beta-2/gamma-2 (P47869 whole entry): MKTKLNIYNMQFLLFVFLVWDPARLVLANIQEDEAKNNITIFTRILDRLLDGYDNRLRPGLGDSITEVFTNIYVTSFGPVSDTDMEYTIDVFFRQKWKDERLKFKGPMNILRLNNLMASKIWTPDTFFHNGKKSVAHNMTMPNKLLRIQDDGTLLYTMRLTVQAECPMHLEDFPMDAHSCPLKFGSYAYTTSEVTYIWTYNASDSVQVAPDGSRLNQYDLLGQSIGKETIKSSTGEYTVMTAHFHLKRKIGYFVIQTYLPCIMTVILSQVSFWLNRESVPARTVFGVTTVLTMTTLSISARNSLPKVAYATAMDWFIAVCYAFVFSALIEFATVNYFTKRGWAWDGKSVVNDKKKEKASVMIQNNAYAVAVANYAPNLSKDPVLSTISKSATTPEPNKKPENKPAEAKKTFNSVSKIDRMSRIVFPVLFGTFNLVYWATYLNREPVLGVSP
Chain of Synaptic vesicular amine transporter (Q01827 whole entry): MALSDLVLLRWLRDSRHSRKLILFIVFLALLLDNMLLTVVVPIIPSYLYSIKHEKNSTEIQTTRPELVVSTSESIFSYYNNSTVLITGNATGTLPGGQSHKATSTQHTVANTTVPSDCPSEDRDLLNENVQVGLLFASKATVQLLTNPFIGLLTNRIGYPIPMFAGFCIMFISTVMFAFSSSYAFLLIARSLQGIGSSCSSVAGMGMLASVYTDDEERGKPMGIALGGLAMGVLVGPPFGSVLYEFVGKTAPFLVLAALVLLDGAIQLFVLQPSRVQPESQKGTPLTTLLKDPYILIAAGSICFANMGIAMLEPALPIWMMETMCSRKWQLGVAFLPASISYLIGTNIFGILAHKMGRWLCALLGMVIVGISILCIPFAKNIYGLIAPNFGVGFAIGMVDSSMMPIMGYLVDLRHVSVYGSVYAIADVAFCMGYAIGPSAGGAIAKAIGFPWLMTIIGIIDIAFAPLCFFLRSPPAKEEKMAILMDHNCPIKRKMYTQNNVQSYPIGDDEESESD
Chain of D(1A) dopamine receptor (P21728 whole entry): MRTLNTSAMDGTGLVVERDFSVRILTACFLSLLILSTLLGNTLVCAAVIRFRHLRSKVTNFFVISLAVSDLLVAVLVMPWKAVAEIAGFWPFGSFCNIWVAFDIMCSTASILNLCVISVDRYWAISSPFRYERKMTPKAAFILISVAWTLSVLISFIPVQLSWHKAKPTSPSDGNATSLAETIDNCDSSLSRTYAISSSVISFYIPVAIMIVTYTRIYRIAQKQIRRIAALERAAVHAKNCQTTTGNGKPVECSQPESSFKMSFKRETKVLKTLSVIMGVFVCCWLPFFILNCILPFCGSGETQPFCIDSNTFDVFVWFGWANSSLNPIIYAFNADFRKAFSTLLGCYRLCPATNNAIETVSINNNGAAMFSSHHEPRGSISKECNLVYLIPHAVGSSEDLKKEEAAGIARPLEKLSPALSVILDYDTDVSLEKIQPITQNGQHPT
Chain of 5-hydroxytryptamine receptor 6 (P50406 whole entry): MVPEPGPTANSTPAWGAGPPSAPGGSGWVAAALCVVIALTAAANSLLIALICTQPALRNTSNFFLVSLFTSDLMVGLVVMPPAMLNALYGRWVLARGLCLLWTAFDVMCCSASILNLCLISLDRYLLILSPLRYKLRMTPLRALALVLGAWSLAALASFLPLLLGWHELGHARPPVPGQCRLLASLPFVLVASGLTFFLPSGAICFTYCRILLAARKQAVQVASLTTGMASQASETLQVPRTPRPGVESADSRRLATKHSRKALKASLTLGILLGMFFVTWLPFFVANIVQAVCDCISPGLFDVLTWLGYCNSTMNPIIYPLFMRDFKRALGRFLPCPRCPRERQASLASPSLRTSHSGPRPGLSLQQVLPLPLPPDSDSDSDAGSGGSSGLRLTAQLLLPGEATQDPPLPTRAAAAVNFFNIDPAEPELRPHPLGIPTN
Chain of Glucagon receptor (P47871 whole entry): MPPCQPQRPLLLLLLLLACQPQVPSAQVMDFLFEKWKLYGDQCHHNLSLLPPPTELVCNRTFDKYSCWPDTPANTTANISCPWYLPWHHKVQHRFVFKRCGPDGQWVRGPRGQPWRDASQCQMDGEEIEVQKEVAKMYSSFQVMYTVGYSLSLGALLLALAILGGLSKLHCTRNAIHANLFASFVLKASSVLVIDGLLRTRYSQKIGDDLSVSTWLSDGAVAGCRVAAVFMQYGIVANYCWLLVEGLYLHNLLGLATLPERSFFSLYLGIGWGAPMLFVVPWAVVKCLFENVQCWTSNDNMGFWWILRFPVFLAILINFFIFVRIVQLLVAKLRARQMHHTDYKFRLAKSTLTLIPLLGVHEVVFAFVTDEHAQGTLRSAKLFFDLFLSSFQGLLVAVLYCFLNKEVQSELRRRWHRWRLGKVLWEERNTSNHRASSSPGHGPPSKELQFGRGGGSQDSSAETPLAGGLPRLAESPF
Chain of 5-hydroxytryptamine receptor 2B (P41595 whole entry): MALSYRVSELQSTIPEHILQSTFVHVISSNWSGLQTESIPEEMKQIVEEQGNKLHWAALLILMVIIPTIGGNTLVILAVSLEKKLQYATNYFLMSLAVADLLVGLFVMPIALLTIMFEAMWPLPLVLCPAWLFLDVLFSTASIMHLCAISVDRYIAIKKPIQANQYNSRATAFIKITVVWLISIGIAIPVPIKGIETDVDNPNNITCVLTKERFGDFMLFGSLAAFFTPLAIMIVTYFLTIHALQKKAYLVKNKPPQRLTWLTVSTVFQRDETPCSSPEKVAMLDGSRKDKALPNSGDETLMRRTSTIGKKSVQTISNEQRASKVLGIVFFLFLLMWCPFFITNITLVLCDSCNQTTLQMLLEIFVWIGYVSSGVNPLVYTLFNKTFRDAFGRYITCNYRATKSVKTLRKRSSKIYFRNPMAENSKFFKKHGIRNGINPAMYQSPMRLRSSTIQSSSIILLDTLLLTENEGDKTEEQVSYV
Chain of 5-hydroxytryptamine receptor 7 (P34969 whole entry): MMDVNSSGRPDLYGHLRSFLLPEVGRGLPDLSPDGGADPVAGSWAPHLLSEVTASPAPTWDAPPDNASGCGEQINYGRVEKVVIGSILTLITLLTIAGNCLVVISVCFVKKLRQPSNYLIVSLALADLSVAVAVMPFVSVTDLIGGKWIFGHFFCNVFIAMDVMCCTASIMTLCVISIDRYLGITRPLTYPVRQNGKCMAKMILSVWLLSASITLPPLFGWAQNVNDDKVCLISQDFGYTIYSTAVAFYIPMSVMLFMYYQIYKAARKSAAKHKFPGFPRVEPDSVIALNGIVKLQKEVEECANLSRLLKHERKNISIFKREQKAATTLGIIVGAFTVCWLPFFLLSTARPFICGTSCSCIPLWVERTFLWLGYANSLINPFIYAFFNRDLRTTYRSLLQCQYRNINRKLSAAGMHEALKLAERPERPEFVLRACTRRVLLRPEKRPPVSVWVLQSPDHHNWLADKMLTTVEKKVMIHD

Structure (SMILES)	AC50 [1]	AC50 [2]	AC50 [3]	AC50 [4]	AC50 [5]	AC50 [6]	AC50 [7]	AC50 [8]	AC50 [9]	AC50 [10]	AC50 [11]	AC50 [12]
CCOC(=O)[C@H](CCc1ccccc1)N[C@@H](C)C(=O)N1CCC[C@H]1C(=O)O	> 10 µM	> 10 µM	> 10 µM	> 10 µM	> 30 µM	> 30 µM	> 10 µM	> 30 µM	> 10 µM	–	–	–
Nc1nc(N)c2nc(-c3ccccc3)c(N)nc2n1	> 10 µM	> 10 µM	> 10 µM	> 10 µM	> 30 µM	> 30 µM	> 10 µM	> 30 µM	> 10 µM	–	–	–
C[C@H]1O[C@H](O[C@H]2[C@H](O)[C@@H](O)[C@@H](O[C@H]3[C@H](O)[C@@H](O)C(O)O[C@@H]3CO)O[C@@H]2CO)[C@H](O)[C@@H](O)[C@@H]1N[C@H]1C=C(CO)[C@@H](O)[C@H](O)[C@H]1O (stereo not given in full) [ACARBOSE]	> 10 µM	> 10 µM	> 10 µM	> 10 µM	> 30 µM	> 30 µM	> 10 µM	> 30 µM	> 10 µM	–	–	–
Oc1ncnc2[nH]ncc12 [ALLOPURINOL]	–	–	> 10 µM	> 10 µM	> 30 µM	> 30 µM	> 10 µM	> 30 µM	> 10 µM	–	–	–
CC(N)Cc1ccccc1 (stereo not given) [AMPHETAMINE]	–	–	–	–	> 30 µM	> 30 µM	> 10 µM	> 30 µM	–	> 30 µM	–	–
O=C1c2c(O)c(=O)ccn2N([C@@H]2c3ccccc3SCc3c2ccc(F)c3F)[C@@H]2COCCN12 [BALOXAVIR]	–	–	–	–	–	–	–	–	–	–	> 30 µM	22 µM
CC(C)NCC(O)COc1ccc(COCCOC(C)C)cc1 (stereo not given) [BISOPROLOL]	–	–	> 10 µM	> 10 µM	> 30 µM	> 30 µM	> 10 µM	> 30 µM	> 10 µM	–	–	–
COc1cc(Nc2c(C#N)cnc3cc(OCCCN4CCN(C)CC4)c(OC)cc23)c(Cl)cc1Cl [BOSUTINIB]	> 10 µM	> 10 µM	–	–	> 30 µM	> 30 µM	> 10 µM	> 30 µM	> 10 µM	–	> 3 µM	–
COc1cc2c(cc1OC)C(=O)C(CC1CCN(Cc3ccccc3)CC1)C2 (stereo not given) [DONEPEZIL]	> 10 µM	> 10 µM	–	–	> 30 µM	> 30 µM	–	> 30 µM	> 10 µM	–	5.32 µM	–
COC(=O)[C@@H]1CC2=CC(=O)CC[C@]2(C)[C@@]23O[C@@H]2C[C@@]2(C)[C@@H](CC[C@@]24CCC(=O)O4)[C@H]13 [EPLERENONE]	–	–	–	> 10 µM	> 30 µM	> 30 µM	> 10 µM	> 30 µM	> 10 µM	> 30 µM	–	–
C#C[C@]1(O)CC[C@H]2[C@@H]3CCc4cc(O)ccc4[C@H]3CC[C@@]21C [ETHINYL ESTRADIOL]	> 30 µM	> 30 µM	> 10 µM	> 30 µM	> 30 µM	> 30 µM	> 10 µM	> 30 µM	> 10 µM	–	–	–
CCOC(=O)c1ccc(O)cc1 [ETHYLPARABEN]	–	–	–	–	–	–	–	–	–	–	> 30 µM	22 µM
NC(N)=Nc1nc(CSCCC(N)=NS(N)(=O)=O)cs1 [FAMOTIDINE]	> 10 µM	> 10 µM	> 10 µM	> 10 µM	> 30 µM	> 30 µM	> 10 µM	> 30 µM	> 10 µM	–	–	–
O=C(COc1ccc(Cl)cc1)N1CCN(Cc2ccc3c(c2)OCO3)CC1 [FIPEXIDE]	–	–	–	–	–	–	–	–	–	–	6.27 µM	0.15 µM
NS(=O)(=O)c1cc2c(cc1Cl)NCNS2(=O)=O [HYDROCHLOROTHIAZIDE]	> 10 µM	> 10 µM	> 10 µM	6.91 µM	> 30 µM	> 30 µM	> 10 µM	> 30 µM	> 10 µM	–	–	–
OC[C@@H](O)[C@@H](O)[C@H](O)[C@H](O)CO [MANNITOL]	–	–	–	–	–	–	–	–	–	–	–	> 30 µM
CN1C(=O)CC(C)(c2ccccc2)C1=O (stereo not given) [METHSUXIMIDE]	–	–	–	–	–	–	–	–	–	–	–	> 30 µM
CCN(CC)CCNC(=O)c1cc(Cl)c(N)cc1OC [METOCLOPRAMIDE]	–	–	> 10 µM	0.314 µM	> 30 µM	> 30 µM	> 10 µM	> 30 µM	> 10 µM	–	–	–
CCc1nn(CCCN2CCN(c3cccc(Cl)c3)CC2)c(=O)n1CCOc1ccccc1 [NEFAZODONE]	0.808 µM	0.237 µM	0.13 µM	0.084 µM	> 30 µM	> 30 µM	0.254 µM	> 30 µM	–	–	–	–
OCCN1CCN(CCCN2c3ccccc3C=Cc3ccccc32)CC1 [OPIPRAMOL]	–	–	1.41 µM	–	–	–	–	–	2.24 µM	> 30 µM	25.7 µM	–
CCc1ccc(CCOc2ccc(CC3SC(=O)NC3=O)cc2)nc1 (stereo not given) [PIOGLITAZONE]	> 10 µM	> 10 µM	> 10 µM	> 10 µM	> 30 µM	> 30 µM	> 10 µM	> 30 µM	> 10 µM	–	–	–
CC(C(=O)O)c1ccc(N2CC=CC2)c(Cl)c1 (stereo not given) [PIRPROFEN]	–	–	> 10 µM	> 10 µM	> 30 µM	> 30 µM	> 10 µM	> 30 µM	> 10 µM	–	28.7 µM	–
CC(O)CO (stereo not given) [PROPYLENE GLYCOL]	–	–	–	–	–	–	–	–	–	–	–	> 30 µM
NC(=O)c1cnccn1 [PYRAZINAMIDE]	> 10 µM	> 10 µM	> 10 µM	> 10 µM	> 30 µM	> 30 µM	> 10 µM	> 30 µM	> 10 µM	–	–	–
CS(=O)(=O)c1ccc([C@@H](O)[C@@H](CO)NC(=O)C(Cl)Cl)cc1 [THIAMPHENICOL]	–	–	–	–	–	–	–	–	–	–	–	> 30 µM
O=C(CCCCCCC(=O)Nc1ccccc1)NO [VORINOSTAT]	> 10 µM	> 10 µM	> 10 µM	> 10 µM	> 10 µM	> 10 µM	> 10 µM	> 10 µM	> 10 µM	> 30 µM	–	–
